Measurements from US10815247B2, “Functionalized NANOLUC inhibitors” (PROMEGA CORPORATION, priority 2016, dated 2020).
“Also recorded” adds a separate entry of the source. Where two headings read alike, the source gives them in different places.

How the values were obtained:
NanoLuc [1] = biological target: T1, NanoLuc (Oplophorus gracilirostris, UniProt Q9GV45, A31E/A60N/A81I/F95D/I117V/K70R/L54V/L99Q/M102K/N193R/P142E/Q151K/Q38R/Q45L/V71I/Y165I); test: Suicide inhibition: displacement of inhibitor by furimazine upon dilution (FIG. 7); conditions: 10 μM Nluc + 10 μM inhibitor 30 minutes at RT, diluted to 10 pM, furimazine 10 uM
T1 sequence (Q9GV45 28-196 with tags or gaps with the stated changes limits assumed): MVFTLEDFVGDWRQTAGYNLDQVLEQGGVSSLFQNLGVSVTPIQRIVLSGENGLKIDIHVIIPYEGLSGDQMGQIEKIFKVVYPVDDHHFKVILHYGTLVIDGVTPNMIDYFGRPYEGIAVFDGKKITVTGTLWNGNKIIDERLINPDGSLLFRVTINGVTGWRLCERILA
Description: Following dilution, 50 ul of the dilution was combined with 50 ul of NanoGlo® assay buffer.
Following dilution, 50 ul of the dilution was combined with 50 ul of NanoGlo® assay buffer. Final furimazine concentration was 10 uM.

NanoLuc [2] = biological target: T1, NanoLuc; test: Inhibitor IC50 determination; type: biochemical
Description: The following example provides the IC50 values for the compounds disclosed herein. NANOLUC® enzyme was diluted to 0.4 ng/ml in CO2 independent media+10% FBS to make the detection reagent. A 3× dilution series of each inhibitor was then made in the detection reagent. A “no inhibitor” control was also made for each sample. 50 ul of each inhibitor dilution was mixed with 50 ul of NanoGlo® buffer containing 20 μM furimazine (final furimazine concentration is 10 μM, which is at Km.), and luminescence was measured. Each sample was normalized to the “no inhibitor” control. The IC50 values were then determined using GraphPad Prism (log[inhibitor] vs. normalized response).

NanoLuc [3] = biological target: T1, NanoLuc; conditions: inhibitor diluted to 3 uM, NanoLuc 0.4 ng/ml, 100 uM furimazine, read at two minute intervals
Description: Inhibitors were diluted to 3 uM into OptiMEM+0.1% FBS. NanoLuc was diluted to 0.4 ng/ml into NanoGlo® buffer+100 uM furimazine. 50 ul of each inhibitor was added to 50 ul of the NanoLuc/furimazine/NanoGlo® solution. Samples were immediately placed in a GloMax Multi+ set to read in kinetic mode at two minute intervals.
Inhibitors were diluted to 3 uM into OptiMEM+0.1% FBS. NanoLuc was diluted to 0.4 ng/ml into NanoGlo® buffer+100 uM furimazine. 50 ul of each inhibitor was added to 50 ul of the NanoLuc/furimazine/NanoGlo® solution. Samples were immediately placed in a GloMax® Multi+ set to read in kinetic mode at two minute intervals.

[4] = 0.4 ng/ml NANOLUC in CO2 independent media+10% FBS, final furimazine 10 μM, no pre-incubation noted, read-out: IC50

CCc1cccc(N(CC)C(=O)Cn2c(C(=O)N[C@H]3CC[C@H](C(=O)NCCCCCCNC(=O)c4ccc5c(c4)C(=O)OC54c5ccc(OC(C)=O)cc5Oc5cc(OC(C)=O)ccc54)CC3)cc3ccccc32)c1 [JRW-0650, 5-((6-(trans-4-(1-(2-(ethyl(3-ethylphenyl)amino)-2-oxoethyl)-1H-indole-2-carboxamido)cyclohexane-1-carboxamido)hexyl)carbamoyl)-3-oxo-3H-spiro[isobenzofuran-1,9′-xanthene]-3′,6′-diyl diacetate]
displacement of inhibitor by furimazine upon dilution (NanoLuc [1]): slower

CCc1cccc(N(CC)C(=O)Cn2c(C(=O)N[C@H]3CC[C@H](C(=O)NCCCCCCCC(=O)ON4C(=O)CCC4=O)CC3)cc3ccccc32)c1 [JRW-0600, 2,5-dioxopyrrolidin-1-yl 8-(trans-4-(1-(2-(ethyl(3-ethylphenyl)amino)-2-oxoethyl)-1H-indole-2-carboxamido)cyclohexane-1-carboxamido)octanoate]
displacement of inhibitor by furimazine upon dilution (NanoLuc [1]): not displaced | reversibility of Nluc inhibition (NanoLuc [1]): irreversible inhibition; also recorded: irreversibly inhibit

CCc1cccc(N(CC)C(=O)Cn2c(C(=O)N[C@H]3CC[C@H](C(=O)NCCCCCC(=O)ON4C(=O)CCC4=O)CC3)cc3ccccc32)c1 [JRW-0604, 2,5-dioxopyrrolidin-1-yl 6-(trans-4-(1-(2-(ethyl(3-ethylphenyl)amino)-2-oxoethyl)-1H-indole-2-carboxamido)cyclohexane-1-carboxamido)hexanoate]
displacement of inhibitor by furimazine upon dilution (NanoLuc [1]): slower | reversibility of Nluc inhibition (NanoLuc [1]): did not show irreversible inhibition | IC50 (NanoLuc [2]): 2.7 nM

CCN(C(=O)Cn1c(C(=O)N[C@H]2CC[C@H](C(=O)OC)CC2)cc2sccc21)c1cccc(CCCBr)c1 [JRW-0548, methyl trans-4-(4-(2-((3-(3-bromopropyl)phenyl)(ethyl)amino)-2-oxoethyl)-4H-thieno[3,2-b]pyrrole-5-carboxamido)cyclohexane-1-carboxylate]
Nluc inhibition over time (kinetic light output) (NanoLuc [3]): steady state inhibition | IC50 (NanoLuc [2]): 99 nM

CCc1cccc(N(CC)C(=O)Cn2c(C(=O)N[C@H]3CC[C@H](C(=O)NCCCCCC(=O)OC)CC3)cc3ccccc32)c1 [JRW-0598, methyl 6-(trans-4-(1-(2-(ethyl(3-ethylphenyl)amino)-2-oxoethyl)-1H-indole-2-carboxamido)cyclohexane-1-carboxamido)hexanoate]
displacement of inhibitor by furimazine upon dilution (NanoLuc [1]): slower | IC50 (NanoLuc [2]): 0.4 nM

N-(trans-4-((8-(3′,6′-diamino-3-oxo-3H-spiro[isobenzofuran-1,9′-xanthene]-5,6-carboxamido)octyl)carbamoyl)cyclohexyl)-1-(2-(ethyl(3-ethylphenyl)amino)-2-oxoethyl)-1H-indole-2-carboxamide [JRW-0886]
IC50 (NanoLuc [2]; [4]): 3.7 nM

CCc1cccc(N(CC)C(=O)Cn2c(C(=O)N[C@H]3CC[C@H](C(=O)NCCCCCCCCNC(=O)c4ccc5c(c4)C(=O)OC54c5ccc(O)cc5Oc5cc(O)ccc54)CC3)cc3ccccc32)c1 [JRW-0882, N-(trans-4-((8-(3′,6′-dihydroxy-3-oxo-3H-spiro[isobenzofuran-1,9′-xanthene]-5-carboxamido)octyl)carbamoyl)cyclohexyl)-1-(2-(ethyl(3-ethylphenyl)amino)-2-oxoethyl)-1H-indole-2-carboxamide]
IC50 (NanoLuc [2]): 1.1 nM

N1-(2-(5,5-difluoro-1,3-dimethyl-5H-5λ4,6λ4-dipyrrolo[1,2-c:2′,1′-f][1,3,2]diazaborinin-10-yl)ethyl)-N4-(1-(trans-4-(1-(2-(ethyl(3-ethylphenyl)amino)-2-oxoethyl)-1H-indole-2-carboxamido)cyclohexyl)-1,12-dioxo-15,18-dioxa-2,11-diazaicosan-20-yl)succinamide [JRW-1083]
IC50 (NanoLuc [2]; [4]): 1.8 nM

CCN(C(=O)Cn1c(C(=O)N[C@H]2CC[C@H](C(=O)NCCCCCCNC(=O)CCOCCOCCNC(=O)CCN3C(=O)C=CC3=O)CC2)cc2sccc21)c1cccc(C)c1 [JRW-0559]
IC50 (NanoLuc [2]): 33 nM

CCN(C(=O)Cn1c(C(=O)N[C@H]2CC[C@H](C(=O)NCCCCCCNC(=O)CCc3ccc4n3[B-](F)(F)[N+]3=C(C)C=C(C)C3=C4)CC2)cc2sccc21)c1cccc(C)c1 [JRW-0829, N-(trans-4-((6-(3-(5,5-difluoro-7,9-dimethyl-5H-514,614-dipyrrolo[1,2-c:2′,1′-f][1,3,2]diazaborinin-3-yl)propanamido)hexyl)carbamoyl)cyclohexyl)-4-(2-(ethyl(m-tolyl)amino)-2-oxoethyl)-4H-thieno[3,2-b]pyrrole-5-carboxamide]
IC50 (NanoLuc [2]): 480 nM

CCc1cccc(N(CC)C(=O)Cn2c(C(=O)N[C@H]3CC[C@H](C(=O)NCCCCCCNC(=O)c4ccc5c(c4)C4(OC5=O)c5ccc(N(C)C)cc5Oc5cc(N(C)C)ccc54)CC3)cc3ccccc32)c1 [JRW-822, N-(trans-4-((6-(3′,6′-bis(dimethylamino)-3-oxo-3H-spiro[isobenzofuran-1,9′-xanthene]-6-carboxamido)hexyl)carbamoyl)cyclohexyl)-1-(2-(ethyl(3-ethylphenyl)amino)-2-oxoethyl)-1H-indole-2-carboxamide]
IC50 (NanoLuc [2]): 3.3 nM

CCN(C(=O)Cn1c(C(=O)N[C@H]2CC[C@H](C(=O)NCCCCCC(=O)NCCOCCOCCOCCC(=O)ON3C(=O)CCC3=O)CC2)cc2sccc21)c1cccc(C)c1 [JRW-0525]
IC50 (NanoLuc [2]): 84 nM

CCN(C(=O)Cn1c(C(=O)N[C@H]2CC[C@H](C(=O)NCCCCCCCCNC(=O)c3ccc4c(c3)C(=O)OC43c4ccc(N)cc4Oc4cc(N)ccc43)CC2)cc2sccc21)c1cccc(C)c1 [JRW-0887]
IC50 (NanoLuc [2]; [4]): 6.3 nM

CCN(C(=O)Cn1c(C(=O)N[C@H]2CC[C@H](C(=O)NCCCCCCCC(=O)Oc3cc(F)cc(F)c3)CC2)cc2sccc21)c1cccc(C)c1 [JRW-0833, 3,5-difluorophenyl 8-(trans-4-(4-(2-(ethyl(m-tolyl)amino)-2-oxoethyl)-4H-thieno[3,2-b]pyrrole-5-carboxamido)cyclohexane-1-carboxamido)octanoate]
IC50 (NanoLuc [2]): 20 nM

CCN(C(=O)Cn1c(C(=O)N[C@H]2CC[C@H](C(=O)NCCCCCCNC(=O)CCl)CC2)cc2sccc21)c1cccc(C)c1 [JRW-0846, N-(trans-4-((6-(2-chloroacetamido)hexyl)carbamoyl)cyclohexyl)-4-(2-(ethyl(m-tolyl)amino)-2-oxoethyl)-4H-thieno[3,2-b]pyrrole-5-carboxamide]
IC50 (NanoLuc [2]): 16 nM

CCN(C(=O)Cn1c(C(=O)N[C@H]2CC[C@H](C(=O)NCCCCCCCC(=O)Oc3ccc(C#N)cc3)CC2)cc2sccc21)c1cccc(C)c1 [JRW-0834, 4-cyanophenyl 8-(trans-4-(4-(2-(ethyl(m-tolyl)amino)-2-oxoethyl)-4H-thieno[3,2-b]pyrrole-5-carboxamido)cyclohexane-1-carboxamido)octanoate]
IC50 (NanoLuc [2]): 3.3 nM

CCc1cccc(N(CC)C(=O)Cn2c(C(=O)N[C@H]3CC[C@H](C(=O)NCCCCCC(=O)Oc4ccccc4)CC3)cc3ccccc32)c1 [JRW-0606, phenyl 6-(trans-4-(1-(2-(ethyl(3-ethylphenyl)amino)-2-oxoethyl)-1H-indole-2-carboxamido)cyclohexane-1-carboxamido)hexanoate]
displacement of inhibitor by furimazine upon dilution (NanoLuc [1]): slower | IC50 (NanoLuc [2]): 4.1 nM

CCc1cccc(N(CC)C(=O)Cn2c(C(=O)N[C@H]3CC[C@H](C(=O)NCCCCCCCCNC(=O)CCc4ccc5n4[B-](F)(F)[N+]4=C(C)C=C(C)C4=C5)CC3)cc3ccccc32)c1 [JRW-0888, N-(trans-4-((8-(3-(5,5-difluoro-7,9-dimethyl-5H-5λ4,6λ4-dipyrrolo[1,2-c:2′,1′-f][1,3,2]diazaborinin-3-yl)propanamido)octyl)carbamoyl)cyclohexyl)-1-(2-(ethyl(3-ethylphenyl)amino)-2-oxoethyl)-1H-indole-2-carboxamide]
IC50 (NanoLuc [2]): 26 nM

N-(trans-4-((8-(4′,5′-dichloro-3′,6′-dihydroxy-2′,7′-dimethoxy-3-oxo-3H-spiro[isobenzofuran-1,9′-xanthene]-5,6-carboxamido)octyl)carbamoyl)cyclohexyl)-1-(2-(ethyl(3-ethylphenyl)amino)-2-oxoethyl)-1H-indole-2-carboxamide [JRW-0964]
IC50 (NanoLuc [2]; [4]): 12 nM

CCc1cccc(N(CC)C(=O)Cn2c(C(=O)N[C@H]3CC[C@H](C(=O)NCCCCCCCCNC(=O)CCC(=O)NCCC4=C5C=CC=[N+]5[B-](F)(F)n5c(C)cc(C)c54)CC3)cc3ccccc32)c1 [JRW-1081, N1-(2-(5,5-difluoro-1,3-dimethyl-5H-5λ4,6λ4-dipyrrolo[1,2-c:2′,1′-f][1,3,2]diazaborinin-10-yl)ethyl)-N4-(8-(trans-4-(1-(2-(ethyl(3-ethylphenyl)amino)-2-oxoethyl)-1H-indole-2-carboxamido)cyclohexane-1-carboxamido)octyl)succinamide]
IC50 (NanoLuc [2]): 6 nM
